Tests used:
[1] = target: T1, GppNHp-KRAS G12D mutant protein (Homo sapiens, UniProt P01116, G12D); assay: Differential scanning fluorimetry (DSF) binding affinity to GppNHp-KRAS G12D mutant protein; conditions: DSF thermal shift, 10 μM compound, 4 μg KRAS protein, 50 mM HEPES (pH 7.5)
T1 construct: purchased Daegu Gyeongbuk Medical Innovation Foundation (DGMIF), made to order
Procedure: (§1) Test Example 1: Measurement of Binding Affinity to KRAS G12D Mutant Protein The binding affinities of the compounds according to one embodiment of the present application to the KRAS G12D mutant protein were evaluated using differential scanning fluorimetry (DSF). Differential scanning fluorimetry (DSF) is a method used to study the stability of a protein upon binding to a compound. The experiment can be performed using a real-time PCR (RT-PCR) instrument, and is commonly employed as a screening technique for small-molecule compounds targeting specific proteins. As the temperature increases, folded proteins begin to unfold, during which a hydrophobic dye such as SYPRO Orange binds to the exposed hydrophobic regions of the protein, resulting in a measurable increase in fluorescence intensity (maximum absorption at 470 nm and maximum emission at 570 nm). Protein-compound binding is determined by the difference in the melting temperature (Tm) of the protein in the presence of the compound compared to the Tm in the absence of the compound, expressed as ΔTm. The binding affinity to the KRAS G12D mutant protein was measured using the Protein Thermal Shift Dye kit (#4461146, Applied Biosystems). The GDP-KRAS G12D mutant protein and GppNHp-KRAS G12D mutant protein used in the experiment were recombinant proteins synthesized by the Daegu Gyeongbuk Medical Innovation Foundation (DGMIF) upon request. The analysis of binding between the compound and the KRAS G12D mutant protein was performed according to the following reaction recipe: each test sample contained 4 μg of KRAS protein, 10 μM of the compound, and 2×SYPRO Orange dye. For the GDP-KRAS G12D protein samples, the buffer provided with the Protein Thermal Shift Dye kit was used, while for the GppNHp-KRAS G12D protein samples, 50 mM HEPES (pH 7.5) buffer was used. For the protein-compound binding reaction, the compound was added to the KRAS G12D mutant protein and reacted at room temperature for 30 minutes, followed by the addition of 2×SYPRO Orange dye. The temperature was increased to 25° C.-99° C. (0.05° C./s) using QuantStudiol RT-PCR instrument (Applied Biosystems), and fluorescence was measured using a ROX reporter with filters of 580±10 nm (excitation)/623±14 nm (emission). The measurements obtained at a compound concentration of 10 μM were analyzed using the Protein Thermal Shift Software program (version v1.4, Thermo Fisher Scientific), and the ΔTm (° C.) values, which indicate the binding affinity of the compound to the KRAS G12D mutant protein, were calculated. The DSF measurement results for the compounds according to one embodiment of the present application with respect to the KRAS G12D mutant protein are shown in Table 2.

[2] = target: T2, GDP-KRAS G12D mutant protein (Homo sapiens, UniProt P01116, G12D); assay: Differential scanning fluorimetry (DSF) binding affinity to GDP-KRAS G12D mutant protein; conditions: DSF thermal shift, 10 μM compound, 4 μg KRAS protein
T2 construct: purchased Daegu Gyeongbuk Medical Innovation Foundation (DGMIF), made to order
Procedure: as §1

SMILES	GppNHp-KRAS G12D (ΔTmD, ° C.) [1] [°C]	GDP-KRAS G12D (ΔTmD, ° C.) [2] [°C]
C#Cc1c(F)ccc2cc(O)cc(-c3cc4nc(OC[C@]56CCCN5CC(=C)C6)nc(N5C[C@H]6CC[C@@H](C5)N6)c4n4ccnc34)c12 [Example 33, 4-(1-((1R,5S)-3,8-diazabicyclo[3.2.1]octan-3-yl)-3-(((R)-2-methylenetetrahydro-1H-pyrrolizin-7a(5H)-yl)methoxy)imidazo[1′,2′:1,6]pyrido[3,2-d]pyrimidin-6-yl)-5-ethynyl-6-fluoronaphthalen-2-ol]	3.59	7.42
C#Cc1c(F)ccc2cc(O)cc(-c3cc4nc(OCC5(CN6CCCC6)CC5)nc(N5C[C@H]6CC[C@@H](C5)N6)c4n4ccnc34)c12 [Example 35, 4-(1-((1R,5S)-3,8-diazabicyclo[3.2.1]octan-3-yl)-3-((1-(pyrrolidin-1-ylmethyl)cyclopropyl)methoxy)imidazo[1′,2′:1,6]pyrido[3,2-d]pyrimidin-6-yl)-5-ethynyl-6-fluoronaphthalen-2-ol]	2.68	8.91
C#Cc1c(F)ccc2cc(N)cc(-c3cc4nc(OC[C@@]56CCCN5C/C(=C\F)C6)nc(N5C[C@H]6CC[C@@H](C5)N6)c4n4ccnc34)c12 [Example 36, 4-(1-((1R,5S)-3,8-diazabicyclo[3.2.1]octan-3-yl)-3-(((S,Z)-2-(fluoromethylene)tetrahydro-1H-pyrrolizin-7a(5H)-yl)methoxy)imidazo[1′,2′:1,6]pyrido[3,2-d]pyrimidin-6-yl)-5-ethynyl-6-fluoronaphthalen-2-amine]	3.42	7.57
C#Cc1c(F)ccc2cc(O)cc(-c3cc4nc(OCC5(CN6CC[C@@H](F)C6)CCC5)nc(N5C[C@H]6CC[C@@H](C5)N6)c4n4ccnc34)c12 [Example 40, 4-(1-((1R,5S)-3,8-diazabicyclo[3.2.1]octan-3-yl)-3-((1-(((R)-3-fluoropyrrolidin-1-yl)methyl)cyclobutyl)methoxy)imidazo[1′,2′:1,6]pyrido[3,2-d]pyrimidin-6-yl)-5-ethynyl-6-fluoronaphthalen-2-ol]	0.61	5.95
Cc1cc2c(o1)c(-c1cc(N)ccc1C(F)(F)F)c(F)c1nc(OC[C@@]34CCCN3C[C@H](F)C4)nc(N3CC4CCC(C3)N4)c12 [Example 49, 3-(1-((1R,5S)-3,8-diazabicyclo[3.2.1]octan-3-yl)-5-fluoro-3-(((2R,7aS)-2-fluorotetrahydro-1H-pyrrolizin-7a(5H)-yl)methoxy)-8-methylfuro[3,2-n]quinazolin-6-yl)-4-(trifluoromethyl)aniline]	0.73	1.92
Cc1cc2c(o1)c(-c1nc(N)ccc1C(F)(F)F)c(F)c1nc(OC[C@@]34CCCN3C[C@H](F)C4)nc(N3C[C@H]4CC[C@@H](C3)N4)c12 [Example 50, 6-(1-((1R,5S)-3,8-diazabicyclo[3.2.1]octan-3-yl)-5-fluoro-3-(((2R,7aS)-2-fluorotetrahydro-1H-pyrrolizin-7a(5H)-yl)methoxy)-8-methylfuro[3,2-f]quinazolin-6-yl)-5-(trifluoromethyl)pyridin-2-amine]	−0.31	0.58
Cc1cc2c(o1)c(-c1c(Cl)c(C)cc3[nH]ncc13)c(F)c1nc(OC[C@@]34CCCN3C[C@H](F)C4)nc(N3C[C@H]4CC[C@@H](C3)N4)c12 [Example 51, 1-((1 R,5S)-3,8-diazabicyclo[3.2.1]octan-3-yl)-6-(5-chloro-6-methyl-1H-indazol-4-yl)-5-fluoro-3-(((2R,7aS)-2-fluorotetrahydro-1H-pyrrolizin-7a(5H)-yl)methoxy)-8-methylfuro[3,2-f]quinazoline]	1.32	4.73
Cc1cc2c(o1)c(-c1cccc3sc(N)nc13)c(F)c1nc(OC[C@@]34CCCN3C[C@H](F)C4)nc(N3CC4CCC(C3)N4)c12 [Example 54, 4-(1-((1R,5S)-3,8-diazabicyclo[3.2.1]octan-3-yl)-5-fluoro-3-(((2R,7aS)-2-fluorotetrahydro-1H-pyrrolizin-7a(5H)-yl)methoxy)-8-methylfuro[3,2-n]quinazolin-6-yl)benzo[d]thiazol-2-amine]	1.61	2.95
Cc1cc2c(o1)c(-c1ccc(F)c3sc(N)nc13)c(F)c1nc(OC[C@@]34CCCN3C[C@H](F)C4)nc(N3C[C@H]4CC[C@@H](C3)N4)c12 [Example 55, 4-(1-((1R,5S)-3,8-diazabicyclo[3.2.1]octan-3-yl)-5-fluoro-3-(((2R,7aS)-2-fluorotetrahydro-1H-pyrrolizin-7a(5H)-yl)methoxy)-8-methylfuro[3,2-n]quinazolin-6-yl)-7-fluorobenzo[d]thiazol-2-amine]	1.91	3.24
C#Cc1c(F)ccc2cc(N)cc(-c3c(F)c4nc(OCC5(CN6CCC7(CC6)CC7(F)F)CC5)nc(N5C[C@H]6CC[C@@H](C5)N6)c4c4cc(C)oc34)c12 [Example 58, 4-(1-((1R,5S)-3,8-diazabicyclo[3.2.1]octan-3-yl)-3-((1-((1,1-difluoro-6-azaspiro[2.5]octan-6-yl)methyl)cyclopropyl)methoxy)-5-fluoro-8-methylfuro[3,2-f]quinazolin-6-yl)-5-ethynyl-6-fluoronaphthalen-2-amine]	1.92	6.81
Cc1cc2c(o1)c(-c1nc(N)cc(C)c1C(F)(F)F)c(F)c1nc(OC[C@@]34CCCN3C[C@H](F)C4)nc(N3C[C@H]4CC[C@@H](C3)N4)c12 [Example 60, 6-(1-((1R,5S)-3,8-diazabicyclo[3.2.1]octan-3-yl)-5-fluoro-3-(((2R,7aS)-2-fluorotetrahydro-1H-pyrrolizin-7a(5H)-yl)methoxy)-8-methylfuro[3,2-n]quinazolin-6-yl)-4-methyl-5-(trifluoromethyl)pyridin-2-amine]	1.61	0.87
C#Cc1c(F)ccc2cc(O)cc(-c3c(F)c4nc(OC[C@@]56CCCN5CC(=C(F)F)C6)nc(N5CC6CCC(C5)N6)c4c4cc(C)oc34)c12 [Example 66, 4-(1-((1R,5S)-3,8-diazabicyclo[3.2.1]octan-3-yl)-3-(((S)-2-(difluoromethylene)tetrahydro-1H-pyrrolizin-7a(5H)-yl)methoxy)-5-fluoro-8-methylfuro[3,2-n]quinazolin-6-yl)-5-ethynyl-6-fluoronaphthalen-2-ol]	9.45	14.49
C#Cc1c(F)ccc2cc(O)cc(-c3c(F)c4nc(N5CC(N(C)C)C5)nc(N5C[C@H]6CC[C@@H](C5)N6)c4c4cn(C)nc34)c12 [Example 72, 4-(9-((1R,5S)-3,8-diazabicyclo[3.2.1]octan-3-yl)-7-(3-(dimethylamino)azetidin-1-yl)-5-fluoro-2-methyl-2H-pyrazolo[4,3-n]quinazolin-4-yl)-5-ethynyl-6-fluoronaphthalen-2-ol]	0.00	−0.29
C#Cc1c(F)ccc2cc(N)cc(-c3cc4nc(OCC5(CN6CCC7(CC6)CC7(F)F)CC5)nc(N5C[C@H]6CC[C@@H](C5)N6)c4c4cn(C)nc34)c12 [Example 76, 4-(9-((1 R,5S)-3,8-diazabicyclo[3.2.1]octan-3-yl)-7-((1-((1,1-difluoro-6-azaspiro[2.5]octan-6-yl)methyl)cyclopropyl)methoxy)-2-methyl-2H-pyrazolo[4,3-f]quinazolin-4-yl)-5-ethynyl-6-fluoronaphthalen-2-amine]	1.47	5.17
C#Cc1c(F)ccc2cccc(-c3cc4nc(OC[C@@]56CCCN5C/C(=C\F)C6)nc(N5C[C@H]6CC[C@@H](C5)N6)c4c4cn(C)nc34)c12 [Example 78, 9-((1 R,5S)-3,8-diazabicyclo[3.2.1]octan-3-yl)-4-(8-ethynyl-7-fluoronaphthalen-1-yl)-7-(((S,Z)-2-(fluoromethylene)tetrahydro-1H-pyrrolizin-7a(5H)-yl)methoxy)-2-methyl-2H-pyrazolo[4,3-n]quinazoline]	1.17	5.46
